This assay addresses T1, human CRF1 receptor (Homo sapiens, UniProt P34998).
T1 construct: expressed in transfected cells; host or cells: CHO cells (membrane fraction)
T1 sequence (P34998 24-415): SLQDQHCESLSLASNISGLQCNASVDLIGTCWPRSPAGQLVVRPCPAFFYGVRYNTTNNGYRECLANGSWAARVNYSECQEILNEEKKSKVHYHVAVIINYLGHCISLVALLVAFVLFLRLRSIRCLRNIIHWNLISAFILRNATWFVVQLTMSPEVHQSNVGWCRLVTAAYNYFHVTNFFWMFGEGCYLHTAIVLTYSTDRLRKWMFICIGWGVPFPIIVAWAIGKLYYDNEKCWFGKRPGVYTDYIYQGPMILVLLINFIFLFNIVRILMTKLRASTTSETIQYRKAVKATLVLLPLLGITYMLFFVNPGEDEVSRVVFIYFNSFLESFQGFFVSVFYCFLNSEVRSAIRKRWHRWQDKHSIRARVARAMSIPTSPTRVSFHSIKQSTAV
Description: Measurement of CRF Binding Inhibitory Rate (receptor binding experiment with 125I-CRF). As to conditions: human CRF1 receptor expressing CHO cellular membrane fraction, 50 pM 125I-CRF, room temperature 1.5 hr, 0.05 nM to 10 μM of compound; read-out: IC50 values (CRF binding inhibition). The procedure: Measurement of CRF Binding Inhibitory Rate
A receptor binding experiment was carried out using a human CRF1 receptor expressing CHO cellular membrane fraction and ovine CRF, [^125I]-tyr^0(^125I-CRF). 1000 nM of a test compound was incubated with 1 μg of human CREF receptor expressing CHO cellular membrane fraction and 50 pM of ^125I-CRF in a binding assay buffer (50 mM Tris-HCl, 5 mM EDTA, 10 mM MgCl2, 0.05% CHAPS, 0.1% BSA, 0.5 mM PMSF, 0.1 μg/mL pepstatin, 20 μg/mL leupeptin, pH 7.5). In addition, for measuring nonspecific binding (NSB), 0.1 μM unlabelled human Urocortin was incubated with 5 μg of human CRE receptor expressing CHO cellular membrane fraction and 50 pM of ^125I-CRF in a binding assay buffer. After a binding reaction was carried out at room temperature for 1.5 hr, the membrane was entrapped on a glass filter (UniFilter plate GF-C/Perkin Elmer) by suction filtration using a cell harvester (Perkin Elmer), and washed with ice-cooled 50 mM Tris-HCl (pH 7.5). After drying the glass filter, a liquid scintillation cocktail (Microscinti 0, Perkin Elmer) was added, and the radioactivity of ^125I-CRF remaining on a glass filter was measured using Topcount (Perkin Elmer).
(TB−SB)/(TB−NSB)×100 (SB: radioactivity when a compound is added, TB: maximum binding radioactivity, NSB: nonspecific binding radioactivity) were calculated to obtain binding inhibitory rates under the range of the presence from 0.05 nM to 10 μM of each compound. The IC50 values were calculated by using GraphPad Prism software.

The record followed here is patent US8785460B2, “Tricyclic compounds and use thereof” (Takeda Pharmaceutical Company Limited, priority 2008, dated 2014).

Structures are written as SMILES.

Usually IC50 stands for the midpoint of a concentration-inhibition curve.

Consider `Cc1cc(Cl)cc(Cl)c1N1CCCn2c1nc1c(Cl)ccc(C(O)CC3CC3)c12` (stereo not drawn) [Example 386, 1-[9-Chloro-1-(2,4-dichloro-6-methylphenyl)-1,2,3,4-tetrahydropyrimido[1,2-a]benzimidazol-6-yl]-2-cyclopropylethanol], for which the half-inhibitory concentration (IC50) is under 1000 nM.

Take `CC(C)C(O)c1ccc(Cl)c2nc3n(c12)CCCN3c1ccc(Cl)cc1Cl` (stereo not drawn) [Example 234, 1-[9-Chloro-1-(2,4-dichlorophenyl)-1,2,3,4-tetrahydropyrimido[1,2-a]benzimidazol-6-yl]-2-methylpropan-1-ol]: the IC50 was under 1000 nM.

As for `CC(=O)NC(c1ccc(Cl)c2nc3n(c12)CCCN3c1ccc(Cl)cc1Cl)C(F)(F)F` (stereo not drawn) [Example 476, N-{1-[9-chloro-1-(2,4-dichlorophenyl)-1,2,3,4-tetrahydropyrimido[1,2-a]benzimidazol-6-yl]-2,2,2-trifluoroethyl}acetamide], the IC50 was under 1000 nM.

For the compound `CCC(c1ccc(Cl)c2nc3n(c12)CCCN3c1ccc(Cl)cc1Cl)C(F)F` (stereo not drawn) [Example 403, 9-Chloro-1-(2,4-dichlorophenyl)-6-[1-(difluoromethyl)propyl]-1,2,3,4-tetrahydropyrimido[1,2-a]benzimidazole], the 50% inhibitory concentration (IC50) was under 1000 nM.

`CCC(OC(C)C)c1ccc(Cl)c2nc3n(c12)CCCN3c1ccc(Cl)cc1Cl` (stereo not drawn) [Example 237, 9-Chloro-1-(2,4-dichlorophenyl)-6-[1-(1-methylethoxy)propyl]-1,2,3,4-tetrahydropyrimido[1,2-a]benzimidazole]: the IC50 is under 1000 nM.

For the compound `CCN(CC)c1cccc2nc3n(c12)CC(F)(F)CCN3c1ccc(Cl)cc1Cl` [Example 359, 1-(2,4-Dichlorophenyl)-N,N-diethyl-4,4-difluoro-2,3,4,5-tetrahydro-1H-[1,3]diazepino[1,2-a]benzimidazol-7-amine], the IC50 was under 1000 nM.

As to `CCC(CC)c1ccc(Cl)c2nc3n(c12)CCN3c1ccccc1Cl` [Example 13, 8-Chloro-1-(2-chlorophenyl)-5-(1-ethylpropyl)-2,3-dihydro-1H-imidazo[1,2-a]benzimidazole], the half-maximal inhibitory concentration (IC50) is under 1000 nM.

As to `CCC(C(C)=O)c1ccc(Cl)c2nc3n(c12)CCCN3c1ccc(Cl)cc1Cl` (stereo not drawn) [Example 405, 3-[9-Chloro-1-(2,4-dichlorophenyl)-1,2,3,4-tetrahydropyrimido[1,2-a]benzimidazol-6-yl]pentan-2-one], the half-maximal inhibitory concentration (IC50) was under 1000 nM.

For `CCC(OC(C)=O)c1ccc(Cl)c2nc3n(c12)CCCN3c1cnc(OC)cc1C` (stereo not drawn) [Example 161, 1-[9-Chloro-1-(6-methoxy-4-methylpyridin-3-yl)-1,2,3,4-tetrahydropyrimido[1,2-a]benzimidazol-6-yl]propyl acetate], the half-maximal inhibitory concentration (IC50) is under 1000 nM.

Consider `CCC(=O)c1cccc2nc3n(c12)CCCCN3c1ccc(Cl)cc1Cl` [Example 69, 1-[1-(2,4-Dichlorophenyl)-2,3,4,5-tetrahydro-1H-[1,3]diazepino[1,2-a]benzimidazol-7-yl]propan-1-one], for which the half-inhibitory concentration (IC50) is under 1000 nM.

`CCN(CC)c1cccc2nc3n(c12)CCN=C3c1ccc(Cl)cc1Cl` [Example 507, 1-(2,4-Dichlorophenyl)-N,N-diethyl-3,4-dihydropyrazino[1,2-a]benzimidazol-6-amine]: the IC50 was under 1000 nM.

Consider `CCOc1ccc(N2CCCn3c2nc2c(Cl)ccc(C(OC(F)F)C(F)(F)F)c23)c(C)n1` (stereo not drawn) [Example 287, 9-Chloro-6-[1-(difluoromethoxy)-2,2,2-trifluoroethyl]-1-(6-ethoxy-2-methylpyridin-3-yl)-1,2,3,4-tetrahydropyrimido[1,2-a]benzimidazole], for which the IC50 was under 1000 nM.

`COc1ccc(N2CCCn3c2nc2c(Cl)ccc(C(OCC(F)F)C4CC4)c23)c(Cl)c1` (stereo not drawn) [Example 472, 9-Chloro-1-(2-chloro-4-methoxyphenyl)-6-[cyclopropyl(2,2-difluoroethoxy)methyl]-1,2,3,4-tetrahydropyrimido[1,2-a]benzimidazole]: the concentration for half-maximal inhibition (IC50) is under 1000 nM.

Turning to `CCC(CC)c1ccc(Cl)c2nc3n(c12)CCCCN3c1ccc(C)cc1CO` [Example 33, {2-[10-Chloro-7-(1-ethylpropyl)-2,3,4,5-tetrahydro-1H-[1,3]diazepino[1,2-a]benzimidazol-1-yl]-5-methylphenyl}methanol], the half-maximal inhibitory concentration (IC50) was under 1000 nM.

For the compound `CCC(c1ccc(Cl)c2nc3n(c12)CCCN3c1ccc(Cl)cc1Cl)C(O)C(F)(F)F` (stereo not drawn) [Example 317, 3-[9-chloro-1-(2,4-dichlorophenyl)-1,2,3,4-tetrahydropyrimido[1,2-a]benzimidazol-6-yl]-1,1,1-trifluoropentan-2-ol], the concentration for half-maximal inhibition (IC50) was under 1000 nM.

In the case of `OC(c1ccc(Cl)c2nc3n(c12)CCCN3c1ccc(Cl)cc1Cl)C(F)(F)F` (stereo not drawn) [Example 307, 1-[9-Chloro-1-(2,4-dichlorophenyl)-1,2,3,4-tetrahydropyrimido[1,2-a]benzimidazol-6-yl]-2,2,2-trifluoroethanol], the half-inhibitory concentration (IC50) is under 1000 nM.

With `CCC(OCC(F)(F)F)c1ccc(Cl)c2nc3n(c12)CCCN3c1ccc(OC)cc1Cl` (stereo not drawn) [Example 466, 9-Chloro-1-(2-chloro-4-methoxyphenyl)-6-[1-(2,2,2-trifluoroethoxy)propyl]-1,2,3,4-tetrahydropyrimido[1,2-a]benzimidazole], the IC50 was under 1000 nM.

In the case of `CCC(CC)c1ccc(Cl)c2nc3n(c12)CCN3c1ccc(Cl)cc1CN(C)C` [Example 8, 1-{5-Chloro-2-[8-chloro-5-(1-ethylpropyl)-2,3-dihydro-1H-imidazo[1,2-a]benzimidazol-1-yl]phenyl}-N,N-dimethylmethanamine], the IC50 is under 1000 nM.

Regarding `CCC(CC)c1ccc(Cl)c2nc3n(c12)CCN3c1ccc(C=O)cc1Cl` [Example 16, 3-Chloro-4-[8-chloro-5-(1-ethylpropyl)-2,3-dihydro-1H-imidazo[1,2-a]benzimidazol-1-yl]benzaldehyde], the IC50 was under 1000 nM.

As to `COc1ccc(N2CCCn3c2nc2c(Cl)ccc(C(O)(C4CC4)C4CC4)c23)c(Cl)c1` [Example 465, [9-Chloro-1-(2-chloro-4-methoxyphenyl)-1,2,3,4-tetrahydropyrimido[1,2-a]benzimidazol-6-yl](dicyclopropyl)methanol], the IC50 was under 1000 nM.

On to `FC(F)COC(c1ccc(Cl)c2nc3n(c12)CCCN3c1ccc(Cl)cc1Cl)C1CC1` (stereo not drawn) [Example 464, 9-Chloro-6-[cyclopropyl(2,2-difluoroethoxy)methyl]-1-(2,4-dichlorophenyl)-1,2,3,4-tetrahydropyrimido[1,2-a]benzimidazole], for which the IC50 is under 1000 nM.

In the case of `CCC(OC(=O)C(C)(C)C)c1ccc(Cl)c2nc3n(c12)CCCN3c1ccc(Cl)cc1Cl` (stereo not drawn) [Example 481, 1-[9-Chloro-1-(2,4-dichlorophenyl)-1,2,3,4-tetrahydropyrimido[1,2-a]benzimidazol-6-yl]propyl 2,2-dimethylpropanoate], the 50% inhibitory concentration (IC50) is under 1000 nM.

With `CCC(OC(C)=O)c1ccc(Cl)c2nc3n(c12)CCCN3c1ccc(C(N)=O)cc1Cl` (stereo not drawn) [Example 255, 1-[1-(4-Carbamoyl-2-chlorophenyl)-9-chloro-1,2,3,4-tetrahydropyrimido[1,2-a]benzimidazol-6-yl]propyl acetate], the IC50 is under 1000 nM.

As to `CCOc1ccc(N2CCCn3c2nc2c(Cl)ccc(C(OC(F)F)=C(F)F)c23)c(C)n1` [Example 286, 9-Chloro-6-[1-(difluoromethoxy)-2,2-difluoroethenyl]-1-(6-ethoxy-2-methylpyridin-3-yl)-1,2,3,4-tetrahydropyrimido[1,2-a]benzimidazole], the 50% inhibitory concentration (IC50) is under 1000 nM.

`COC(=O)c1ccc(Cl)c2nc3n(c12)CCCCN3c1ccc(OC)cc1Cl` [Example 330, Methyl 10-chloro-1-(2-chloro-4-methoxyphenyl)-2,3,4,5-tetrahydro-1H-[1,3]diazepino[1,2-a]benzimidazole-7-carboxylate]: the half-maximal inhibitory concentration (IC50) is under 1000 nM.

Consider `CC/C(=N\OC)c1ccc(Cl)c2nc3n(c12)CCCN3c1ccc(Cl)cc1Cl` [Example 121, (1E)-1-[9-Chloro-1-(2,4-dichlorophenyl)-1,2,3,4-tetrahydropyrimido[1,2-a]benzimidazol-6-yl]propan-1-one O-methyloxime], for which the IC50 was under 1000 nM.

For `CCN(CC)c1cccc2nc3n(c12)CC(N=[N+]=[N-])CCN3c1ccc(Cl)cc1Cl` (stereo not drawn) [Example 361, 4-Azido-1-(2,4-dichlorophenyl)-N,N-diethyl-2,3,4,5-tetrahydro-1H-[1,3]diazepino[1,2-a]benzimidazol-7-amine], the IC50 is under 1000 nM.
